Experimental data: patent US5026829A, “Cyclo substituted propyleneamine oxime and its use as a brain imaging agent” (University of Cincinnati, priority 1989, dated 1991)

Tests used:
[1] = Brain uptake, retention and tomographic brain imaging in normal human volunteers; assay type: in vivo
Method: (§1) In order to test the whole body biodistribution of the 99m-Tc CB-PAO tracer, three normal human volunteers were tested using single photon emission computed tomography. Whole body images were obtained at 15 minutes, two hours and five hours after an intraveneous injection of about 13 millicurries of Tc-99m d,l-CB-PAO. A dynamic study during the first ten minutes after administration of the tracer defined the time activity curve for brain uptake. The tomographic study was performed at one hour after administration. Venous blood samples were collected at various times up to five hours after administration and urine was collected up to 24 hours after administration.
The decrease in cerebral activity is only about 5% between 15 minutes and 2 hours after injection. Approximately 24% of the injected dose is cleared through the renal system within five hours and approximately 37% is cleared within 24 hours.

[2] = In vitro stability of 99m-Tc-CB-PAO after pH lowering with gentisic acid; assay type: physicochemical; settings: about 6mM gentisic acid solution added
Method: The d,l isomer is then complexed with 99m-technetium to obtain a brain perfusion imaging agent. To formulate the 99m-Tc-d,l-CB-PAO 5ml of a ligand solution is placed into an evacuated 10 ml vial. The ligand solution contained approximately 0.5 mg/ml of ligand. One hundred and fifty microliters of a tin chloride solution containing 10 mg of tin chloride per 50 ml in water was added. Ten to one hundred microliters of 99m-pertechnetate sodium solution eluted from a molybdenum 99 generator is added to the vial and this is shaken for 10 seconds. An imaging solution can be immediately removed for use.
However, it is preferable that the pH of the solution which upon addition of the stanous chloride is about 8.9 be lowered. Accordingly, gentisic acid was used to lower the pH of the complex. A solution of gentisic acid was made by dissolving 0.0303g of gentisic acid and 30ml saline. 3.0 milliliters of this solution was pipetted into another vial.
An additional 30ml of saline was added. This latter vial was purged with argon for 50 minutes and sealed to yield a solution of about […] in gentisic acid. 1.0-1.2ml of the above solution was added to a 10 ml evacuated vial. 2.5 milliliters of 99m-Tc-CB-PAO previously prepared is then added to this evacuated vial. This was then tested for stability. At 15 minutes, 100% of the 99m-Tc-CB-PAO remained. At 165 minutes again 100% of the 99m-Tc-CB-PAO remained. At 18 hours 98% of the 99m-Tc-CB-PAO remained.

[3] = Whole body biodistribution by single photon emission computed tomography in normal human volunteers; assay type: in vivo; settings: intravenous, about 13 millicurries, in %
Method: as §1

[4] = Comparative in vitro stability of 99m-Tc CB-PAO and 99m-Tc HM-PAO prepared in the same vial (HPLC); assay type: physicochemical; settings: for Stabilization: CB relative to HM; for CB/HM: ratio of CB to HM percentage; for in vitro stability, in words: 13.4 hours; for percentage of 99m-Tc complex (CB or HM): same vial, HPLC
Method: In order to test the in vitro stability of the 99m-Tc-CB-PAO, 99m-Tc-CB-PAOand 99m-Tc-HMPAO were prepared in the same vial. The CB-PAO and HM-PAO agents were both reacted with pertechnetate in the same vial. This insures that both compositions were subjected to the same characteristics. These were then tested using HPLC. The results showing the percentage of 99m-Tc CB-PAO (labeled CB) and 99m-Tc HM-PAO labeled HM are shown in Table 1 over a period of 0 minutes to 13.4 hours.

[5] = Renal clearance (urine collection) in normal human volunteers; assay type: in vivo
Method: as §1

[6] = background statement; cited from earlier work
[7] = cited from earlier work

With `CC1=[N+]([O-])[99Tc-2]23(=[O])[N](CC4(CCC4)C[N]2C(C)C(C)=[N+]3O)C1C` (racemic) [99m-Tc CB-PAO] the “decrease in cerebral activity” value ([1]; between 15 minutes and 2 hours after injection) was “about 5%”, the “tomographic brain image quality, in words” value ([1]; tomographic study at one hour after administration) was “good definition of cerebral structures and good distinction between grey and white matter” and the “stability of brain uptake, in words” value ([1]; up to five hours after injection) was “stable for up to five hours”. For the same compound, the “injected dose taken up by the brain” value ([1]; within the first five minutes after intravenous injection) was “Approximately 3.6 % of the injected dose”, the 99m-Tc-CB-PAO remaining ([2]; 15 minutes) was 100% and the 99m-Tc-CB-PAO remaining ([2]; 165 minutes) was 100%. The 99m-Tc-CB-PAO remaining ([2]; 18 hours) was 98%, the “Whole body distribution, Bladder & Urine” value ([3]; 15') was 4.2 ± 1.36 and the “Whole body distribution, Blood” value ([3]; 15') was 14.9 ± 0.79. For the same compound, the “Whole body distribution, Brain” value ([3]; 15') was 3.6 ± 0.26, the “Whole body distribution, Gallbladder” value ([3]; 15') was 2.2 ± 0.05 and the “Whole body distribution, Liver” value ([3]; 15') was 26.4 ± 7.1. The “Whole body distribution, Lungs” value ([3]; 15') was 4.0 ± 0.85, the “Whole body distribution, Bladder & Urine” value ([3]; 2h) was 19.4 ± 8.4 and the “Whole body distribution, Blood” value ([3]; 2h) was 8.3 ± 0.7. The “Whole body distribution, Brain” value ([3]; 2h) was 3.5 ± 0.15, the “Whole body distribution, Gallbladder” value ([3]; 2h) was 2.8 ± 0.7 and the “Whole body distribution, Liver” value ([3]; 2h) was 25.4 ± 7. For the same compound, the “Whole body distribution, Lungs” value ([3]; 2h) was 3.1 ± 0.70, the “Whole body distribution, Bladder & Urine” value ([3]; 5h) was 23.5 ± 2.80 and the “Whole body distribution, Blood” value ([3]; 5h) was 5.8 ± 0.45. The “Whole body distribution, Brain” value ([3]; 5h) was 3.5 ± 0.11, the “Whole body distribution, Gallbladder” value ([3]; 5h) was 1.7 ± 0.65 and the “Whole body distribution, Liver” value ([3]; 5h) was 22.3 ± 9.5. The “Whole body distribution, Lungs” value ([3]; 5h) was 2.7 ± 0.72, the Stabilization ([4]; 23 min) was 30% and the CB/HM ([4]; 23 min) was 1.85. The Stabilization ([4]; 74 min) was 50%, the CB/HM ([4]; 74 min) was 2.04 and the Stabilization ([4]; 3.3 h) was 53%. The CB/HM ([4]; 3.3 h) was 2.11, the Stabilization ([4]; 12.2 h) was 140% and the CB/HM ([4]; 12.2 h) was 3.29. The Stabilization ([4]; 13.4 h) was 160%, the CB/HM ([4]; 13.4 h) was 3.58 and the “in vitro stability, in words” value [4] was “most of the 99m-Tc CB-PAO remained”. The Stabilization ([4]; time 0) was 0%, the CB/HM ([4]; time 0) was 1.40 and the “percentage of 99m-Tc complex (CB or HM)” value ([4]; time 0) was 55.2%. For the same compound, the “in vitro stability compared with the prior art brain imaging agent, in words” value ([4]; vs 99m-Tc HM-PAO) was “substantially more stable in vitro than the prior art brain imaging agent”, the “injected dose cleared through the renal system” value ([5]; within 24 hours) was “approximately 37 % of the injected dose” and the “injected dose cleared through the renal system” value ([5]; within five hours, 300 min) was “Approximately 24 % of the injected dose”.

In the case of `C/C(=N\O)[C@@H](C)NCC(C)(C)CN[C@H](C)/C(C)=N/O` [99m-Tc HM-PAO, 4,8,-diaza-3,6,6,9-tetramethyl undecane-2,10-dione bisoxime, metal not drawn], the “brain passage and retention, in words” value [6] is listed as “passes through the blood brain barrier, is theoretically altered in some way, and remains in the brain for a period of time sufficient to obtain a successful brain image”, the “aqueous in vitro degradation rate, in words” value ([7]; J. Nucl. Med. 1988) is listed as “slow” and the “time after formulation within which it must be administered” value ([7]; aqueous, without stabilizer, J. Nucl. Med. 1988) is listed as no more than 30 min. The “time after preparation within which it must be used, in words” value ([7]; stabilized with gentisic acid within 30 seconds after formation) was “must be used within hours after preparation”, the “in vitro stability, in words” value [4] was “most of the 99m-Tc HM-PAO had decomposed” and the “percentage of 99m-Tc complex (CB or HM)” value ([4]; time 0) was 39.5%.
